Test results from ChEMBL document CHEMBL1201862, “PubChem BioAssay data set” (2004).
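Growth conditions: 96-well plates. Treatment: test compound, 48 hours, 5 concentrations. Analysis: linear interpolation between bracketing concentrations; unreached endpoints set to highest concentration. At the GI50, growth is halved.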 The source made the active and inactive calls. Cut-off read from the data, not from the text of the source: active = GI50 up to about 1.1 µM and inactive = higher.

Assays:
Test in all cases: growth of human tumour cells (NCI), 48 h
T47D = system: T47D
DLD-1 = system: DLD-1
DMS-114 = system: DMS-114
HOP-18 = system: HOP-18
KM-20L2 = system: KM-20L2
M19-MEL = system: M19-MEL
RXF 631 = system: RXF 631
SNB-78 = system: SNB-78
XF498 = system: XF498

## O=C1C(=O)N(C2CCCCC2)C(=S)N1C1CCCCC1
T47D
  GI50: > 100 µM (inactive)

## COC1CCC2C(=O)CCCC2O1 (stereo not drawn)
DLD-1
  GI50: > 100 µM (inactive)
DMS-114
  GI50: > 100 µM (inactive)
HOP-18
  GI50: > 100 µM (inactive)
KM-20L2
  GI50: > 100 µM (inactive)
M19-MEL
  GI50: > 100 µM (inactive)
RXF 631
  GI50: > 100 µM (inactive)
SNB-78
  GI50: > 100 µM (inactive)
XF498
  GI50: > 100 µM (inactive)

## Cc1cccc(C(C)(C)C)c1NC(=O)CCl
DLD-1
  GI50: > 100 µM (inactive)
HOP-18
  GI50: > 100 µM (inactive)
KM-20L2
  GI50: > 100 µM (inactive)
M19-MEL
  GI50: > 100 µM (inactive)
RXF 631
  GI50: > 100 µM (inactive)
SNB-78
  GI50: > 100 µM (inactive)
XF498
  GI50: > 100 µM (inactive)

## O=[N+]([O-])c1ccc(S(=O)(=O)N=Ic2ccccc2)cc1
T47D
  GI50: > 100 µM (inactive)

## CN(C)c1ncnc2c1Cc1ccccc1C(=O)N2C
DLD-1
  GI50: > 100 µM (inactive)
DMS-114
  GI50: > 100 µM (inactive)
HOP-18
  GI50: > 100 µM (inactive)
KM-20L2
  GI50: > 100 µM (inactive)
M19-MEL
  GI50: > 100 µM (inactive)
RXF 631
  GI50: > 100 µM (inactive)
SNB-78
  GI50: > 100 µM (inactive)
XF498
  GI50: > 100 µM (inactive)

## CC1(C)C(=O)CCC(=O)C(C)(C)C2=CC=C(O2)C(C)(C)C(=O)CCC(=O)C(C)(C)C2=CC=C1O2
HOP-18
  GI50: > 100 µM (inactive)
KM-20L2
  GI50: > 100 µM (inactive)
M19-MEL
  GI50: > 100 µM (inactive)
SNB-78
  GI50: > 100 µM (inactive)

## CCOC(=O)Cc1c(Cc2[nH]c(C(=O)OCc3ccccc3)c(CC(=O)OCC)c2CC(=O)OCC)[nH]c(C(=O)OCc2ccccc2)c1CC(=O)OCC
DMS-114
  GI50: > 100 µM (inactive)
HOP-18
  GI50: > 100 µM (inactive)
KM-20L2
  GI50: > 100 µM (inactive)
M19-MEL
  GI50: > 100 µM (inactive)
SNB-78
  GI50: > 100 µM (inactive)

## C/C(=N\NC(=S)N1CCC(C2CCN(C(=S)N/N=C(\C)c3ccccn3)CC2)CC1)c1ccccn1
DLD-1
  GI50: > 100 µM (inactive)
HOP-18
  GI50: > 100 µM (inactive)
KM-20L2
  GI50: > 100 µM (inactive)
M19-MEL
  GI50: > 100 µM (inactive)
RXF 631
  GI50: > 100 µM (inactive)
SNB-78
  GI50: 44.3 µM (inactive)
XF498
  GI50: 35 µM (inactive)

## S=C1NCCN1
DLD-1
  GI50: > 100 µM (inactive)
DMS-114
  GI50: > 100 µM (inactive)
KM-20L2
  GI50: > 100 µM (inactive)
M19-MEL
  GI50: > 100 µM (inactive)
SNB-78
  GI50: > 100 µM (inactive)
XF498
  GI50: > 100 µM (inactive)

## COc1ccc(C(=O)C(c2ccc(OC)cc2)C2(O)C(=O)Nc3ccccc32)cc1 (stereo not drawn)
DLD-1
  GI50: > 100 µM (inactive)
KM-20L2
  GI50: > 100 µM (inactive)
M19-MEL
  GI50: > 100 µM (inactive)
RXF 631
  GI50: > 100 µM (inactive)
SNB-78
  GI50: > 100 µM (inactive)
XF498
  GI50: > 100 µM (inactive)

## COC(=O)C1=C(C)N(NC(=O)c2ccccc2)C(C)(O)C12CCOC2=O (stereo not drawn)
DLD-1
  GI50: > 100 µM (inactive)
DMS-114
  GI50: > 100 µM (inactive)
HOP-18
  GI50: > 100 µM (inactive)
KM-20L2
  GI50: > 100 µM (inactive)
SNB-78
  GI50: > 100 µM (inactive)
XF498
  GI50: > 100 µM (inactive)

## CCc1cccc(C)c1NC(=O)C(=O)CC(=O)c1ccc(Cl)s1
DLD-1
  GI50: > 100 µM (inactive)
HOP-18
  GI50: > 100 µM (inactive)
KM-20L2
  GI50: > 100 µM (inactive)
M19-MEL
  GI50: > 100 µM (inactive)
RXF 631
  GI50: > 100 µM (inactive)
SNB-78
  GI50: > 100 µM (inactive)

## CN(C)CCS/C(=N\c1ccccc1)N1CCCCC1
DLD-1
  GI50: 17.3 µM (inactive)
DMS-114
  GI50: 13.5 µM (inactive)
HOP-18
  GI50: 17.9 µM (inactive)
KM-20L2
  GI50: 17.2 µM (inactive)
M19-MEL
  GI50: 17.1 µM (inactive)
XF498
  GI50: 16.1 µM (inactive)

## Cn1c(=O)c(C(c2ccccc2)c2c(O)c3ccccc3n(C)c2=O)c(O)c2ccccc21
DLD-1
  GI50: 88.7 µM (inactive)
DMS-114
  GI50: > 100 µM (inactive)
HOP-18
  GI50: > 100 µM (inactive)
KM-20L2
  GI50: > 100 µM (inactive)
M19-MEL
  GI50: > 100 µM (inactive)
RXF 631
  GI50: > 100 µM (inactive)
SNB-78
  GI50: > 100 µM (inactive)
XF498
  GI50: > 100 µM (inactive)

## CC(C)CCCC(C)[C@H]1CCC2[C@H]3C(CC[C@@]21C)[C@@]1(C)CCC=C[C@]12C[C@@H]2[C@@H]3O (stereo partly drawn)
DLD-1
  GI50: > 100 µM (inactive)
DMS-114
  GI50: > 100 µM (inactive)
HOP-18
  GI50: > 100 µM (inactive)
KM-20L2
  GI50: > 100 µM (inactive)
RXF 631
  GI50: > 100 µM (inactive)
SNB-78
  GI50: > 100 µM (inactive)

## CC(C)[Si](OCC1CC(C#N)OC(C)(C)O1)(C(C)C)C(C)C (stereo not drawn)
DLD-1
  GI50: 44.4 µM (inactive)
DMS-114
  GI50: > 10 µM (inactive)
HOP-18
  GI50: 30.5 µM (inactive)
KM-20L2
  GI50: 21.9 µM (inactive)
M19-MEL
  GI50: 25.2 µM (inactive)
SNB-78
  GI50: 20.5 µM (inactive)
XF498
  GI50: 21 µM (inactive)

## C=C1CC[C@@H]2C(C)(C)C(O)CCC2(C)C1COc1ccc2ccc(=O)oc2c1 (stereo partly drawn)
DLD-1
  GI50: 15.7 µM (inactive)
DMS-114
  GI50: 15 µM (inactive)
HOP-18
  GI50: 19.6 µM (inactive)
KM-20L2
  GI50: 19.1 µM (inactive)
M19-MEL
  GI50: 18.4 µM (inactive)
SNB-78
  GI50: 19.4 µM (inactive)
XF498
  GI50: 16 µM (inactive)

## CN(C)CCNc1nc(-c2cccs2)cc(-c2cccs2)n1
DLD-1
  GI50: 22.5 µM (inactive)
DMS-114
  GI50: 8.73 µM (inactive)
HOP-18
  GI50: < 0.01 µM (active)
SNB-78
  GI50: 16.9 µM (inactive)
XF498
  GI50: 3.39 µM (inactive)

## COc1ccc(NCc2cc(OC)cc(OC)c2)cc1
DLD-1
  GI50: 32.6 µM (inactive)
DMS-114
  GI50: 6.53 µM (inactive)
HOP-18
  GI50: > 42.7 µM (inactive)
KM-20L2
  GI50: 10.7 µM (inactive)
M19-MEL
  GI50: 15.1 µM (inactive)
RXF 631
  GI50: 10.5 µM (inactive)
SNB-78
  GI50: 19.6 µM (inactive)
XF498
  GI50: 4.3 µM (inactive)

## COc1c(OC)c(OC)c2c(c1OC)c(=O)c1ccccc1n2C [MELICOPICINE]
T47D
  GI50: 54.3 µM (inactive)
